This note sets out measurements from ChEMBL document CHEMBL4627407, “Identification of a Potent Oridonin Analogue for Treatment of Triple-Negative Breast Cancer” (J Med Chem, 2020).

Activity calls are given as the source filed them. The rule behind the calls is not given here.

For test [1], the system named is T47D. Put plainly: Antiproliferative activity against human T47D cells after 72 hrs by MTT assay. The class given is functional, cell-based.
Test [2] has as its system MDA-MB-453. In words: Antiproliferative activity against human MDA-MB-453 cells after 72 hrs by MTT assay. It counts as functional, cell-based. Particulars: MDA-MB-453, 72 h.
Test [3] deals with HCC1806. In words: Antiproliferative activity against human HCC1806 cells after 72 hrs by MTT assay. The class given is functional, cell-based. Conditions: HCC1806, 72 h. In general terms: Tetrazolium assays rely on reduction of a dye to a coloured formazan, in cell work by metabolically active cells.
Test [4] has as its system HCC1806. In words: Induction of apoptosis in human HCC1806 cells assessed as late apoptotic cells at 50 uM after 48 hrs by Annexin V-FITC/propidium iodide double staining based flow cytometry (reference value: 0.81%). The class given is functional. In general terms: Flow cytometry measures light scatter and fluorescence of single cells or particles in a stream.
In test [5] the test system is HCC1806. Put plainly: Induction of apoptosis in human HCC1806 cells assessed as decrease in Bcl2 expression at >= 50 nM after 48 hrs by Western blot analysis. The class given is functional, cell-based.
In test [6] the test system is HCC1806. In words: Antitumor activity against human HCC1806 cells harboring luciferase gene xenografted in ICR mouse assessed as shrunken tumor tissue at 12.5 to 25 mg/kg, iv administered once daily for 21 consecutive days and measured once every week. The class given is functional, organism-based. On the technique in general: Xenograft models place foreign cells or tissue in a host animal.

Consider `C=C1C(=O)[C@@]23C(=O)[C@@H]4OC[C@]5(C=CCC(C)(C)[C@@H]45)[C@@H]2CC[C@@H]1[C@H]3OC(=O)/C=C/c1ccncc1`, for which the IC50 turned out to be 560 nM in test [1], 330 nM in test [2] and 180 nM in test [3]. In addition, the Activity in test [4] is reported as 2.43%. The outcome in test [5] and in test [6] was Active.

For orientation: IC50 means the concentration that inhibits the measured activity by half. Read a low IC50 as greater potency.
